Results taken from US20170020838A1, “TREATMENT FOR RESPIRATORY DISEASE” (MUCOKINETICA LIMITED, priority 2014, published 2017).

How the values were obtained:
[1] = test system: kidney sodium channel; conditions: cortical collecting duct of the rabbit kidney; Muto et al. 1993; cited from earlier work
[2] = test system: ciliary transport of pig airway mucus secretions on the ex vivo trachea of transgenic CF piglets; assay: Ciliary transport of mucus secretions on ex vivo trachea of transgenic CF piglets; parameters: speed of ciliary transport at the first three time points (25, 40 and 55 min), day 1: dose or concentration left out as unconfirmed
Protocol: FIG. 13 Study of the effects of 6-amidino-2-napthyl 4-guanidinobenzoate in BSS, and a combination of hyperosmotic saline and 6-amidino-2-napthyl 4-guanidinobenzoate in BSS on ciliary transport of pig airway mucus secretions on the ex vivo trachea of transgenic CF piglets. Transgenic CF piglets were produced as described by Klymiuk et al. 2012, and tracheas obtained at a Veterinary University. Study methods were otherwise as described in FIG. 10. Ciliary transport index (mean) was measured over two days with a second treatment period at the start of the second day.
Pig tracheas (from larynx to carina) from normal wild type animals were obtained from a local abattoir or Veterinary University. Transgenic CF piglets were produced as described by Klymiuk et al. 2012, and tracheas were obtained at a Veterinary University. The lumen of each trachea was cleaned by gentle irrigation with BSS. Tracheas were opened longitudinally with scissors along the posterior aspect and mounted with the posterior aspect upwards in a moist air-tight box. An aliquot of pig airway mucus approximately 3 mm diameter was placed on the mucosal surface close to the distal end of each trachea. Tracheal mucus velocity (TMV mm/min) was measured by recording the distance moved, towards the laryngeal end of the trachea, in a given time. At the start of a study three measurements of TMV were made for each trachea to establish a baseline rate for the trachea. Solutions were then pipetted onto the luminal mucosal surface of tracheas for 10 min. Then excess solution was tipped off the mucosal surface and measurement of TMV repeated. TMV results at each time point are expressed as % of the baseline TMV, ciliary transport index (mean±SD).

N=C(N)Nc1ccc(C(=O)Oc2ccc3cc(C(=N)N)ccc3c2)cc1 [6-amidino-2-napthyl 4-guanidinobenzoate]
action on the kidney sodium channel [1]: weak, short acting inhibitor | speed of ciliary transport at the first three time points (25, 40 and 55 min), day 1 ([2]; in BSS, 10 min): no increase in speed | speed of ciliary transport at the first time point (25 min), day 2 ([2]; second 10 min treatment with 10^−5 M at 14 h 10 min): No increase in speed | onset and duration profile of increased ciliary transport, both days ([2]; transgenic CF pig tracheas): slow-onset long duration
